Data published in US10208015B2, “Aryl-triazolyl pyridines as pest control agents” (BAYER ANIMAL HEALTH GMBH, priority 2014, dated 2019).
Where two headings read alike, the source gives them in different places.

Legend:
[1] = logP by HPLC on reversed-phase column (C18), EEC Directive 79/831 Annex V.A8; format: physicochemical
[2] = tested on: Ctenocephalides felis; assay: Ctenocephalides felis in vitro contact test with adult cat fleas; format: in vivo; settings: application rate 500 g/ha (5 μg/cm^2), after 48 h
Method: Ctenocephalides felis—In Vitro Contact Tests with Adult Cat Fleas
(§1) For the coating of the test tubes, 9 mg of active compound are first dissolved in 1 ml of acetone p.a. and then diluted to the desired concentration with acetone p.a. 250 μl of the solution are distributed homogeneously on the inner walls and the base of a 25 ml test tube by turning and rocking on an orbital shaker (rocking rotation at 30 rpm for 2 h). With 900 ppm active compound solution and internal surface 44.7 cm^2, given homogeneous distribution, an area-based dose of 5 μg/cm^2 is achieved.
After the solvent has evaporated off, the tubes are populated with 5-10 adult cat fleas (Ctenocephalides felis), sealed with a perforated plastic lid and incubated in a horizontal position at room temperature and ambient humidity. After 48 h, efficacy is determined. To this end, the test tubes are stood upright and the fleas are knocked to the base of the tube. Fleas which remain motionless at the base or move in an uncoordinated manner are considered to be dead or moribund.
100% efficacy means that all the fleas were dead or moribund. 0% efficacy means that no fleas were harmed.

[3] = tested on: Rhipicephalus sanguineus; assay: Rhipicephalus sanguineus in vitro contact test with adult brown dog ticks; format: in vivo; settings: application rate 500 g/ha (5 μg/cm^2), after 48 h
Method: Rhipicephalus sanguineus—In Vitro Contact Tests with Adult Brown Dog Ticks
as §1
After the solvent has evaporated off, the tubes are populated with 5-10 adult dog ticks (Rhipicephalus sanguineus), sealed with a perforated plastic lid and incubated in a horizontal position in the dark at room temperature and ambient humidity. After 48 h, efficacy is determined. To this end, the ticks are knocked to the floor of the tube and incubated on a hotplate at 45-50° C. for not more than 5 min. Ticks which remain motionless on the floor or move in such an uncoordinated manner that they are unable to deliberately avoid the heat by climbing upwards are considered to be dead or moribund.
An efficacy of 100% means that all the ticks were dead or moribund. 0% efficacy means that none of the ticks had been harmed.

[4] = tested on: Amblyomma hebraeum; assay: Amblyomma hebraeum test (tick nymphs, immersion); format: in vivo; settings: application rate 100 ppm, after 42 days
Description: Amblyomma hebaraeum Test • Solvent: dimethyl sulphoxide […] Tick nymphs (Amblyomma hebraeum) are placed into perforated plastic beakers and immersed in the desired concentration for one minute. The ticks are transferred on filter paper into a Petri dish and stored in a climate-controlled cabinet.

[5] = tested on: Boophilus microplus Parkhurst strain, SP-resistant; assay: Boophilus microplus dip test; format: in vivo; settings: application rate 100 ppm, assessed after 7 days
Method: Boophilus microplus—Dip Test
• Test animals: cattle ticks (Boophilus microplus) Parkhurst strain, SP-resistant • Solvent: dimethyl sulphoxide
10 mg of active compound are dissolved in 0.5 ml of dimethyl sulphoxide. To produce a suitable formulation, the active compound solution is diluted with water to the concentration desired in each case.
This active compound preparation is pipetted into tubes. 8-10 engorged adult female cattle ticks (Boophilus microplus) are transferred into a further tube with holes. The tube is immersed into the active compound preparation, and all the ticks are completely wetted. After the liquid has run out, the ticks are transferred on filter discs into plastic dishes and stored in a climate-controlled room.
Efficacy is assessed after 7 days by laying of fertile eggs. Eggs which are not visibly fertile are stored in a climate-controlled cabinet until the larvae hatch after about 42 days. An efficacy of 100% means that none of the ticks has laid any fertile eggs; 0% means that all the eggs are fertile.

[6] = tested on: Boophilus microplus; assay: Boophilus microplus injection test; format: in vivo; settings: application rate 20 μg/animal, assessed after 7 days
Method: Boophilus microplus—Injection Test • Solvent: dimethyl sulphoxide […] The animals are transferred into dishes and kept in a climate-controlled room. Efficacy is assessed after 7 days by laying of fertile eggs. Eggs which are not visibly fertile are stored in a climate-controlled cabinet until the larvae hatch after about 42 days.

[7] = tested on: Ctenocephalides felis; assay: Ctenocephalides felis oral test; format: in vivo; settings: application rate 100 ppm in citrated cattle blood, after 2 days
Method in brief: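 Compound in DMSO, diluted to test concentration in citrated cattle blood, was fed through a parafilm membrane from a metal cylinder. About 20 unfed adult cat fleas were held in a gauze-closed chamber beneath it.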

[8] = tested on: Lucilia cuprina; assay: Lucilia cuprina test; format: in vivo; settings: application rate 100 ppm, L1 larvae, after 2 days
Method in brief: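 About 20 L1 larvae of Lucilia cuprina are placed on minced horsemeat treated with compound (DMSO concentrate diluted in water to the test concentration). Kill is scored after 2 days, where 100% means all larvae dead and 0% none dead.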

[9] = tested on: Musca domestica; assay: Musca domestica test; format: in vivo; settings: application rate 100 ppm, adult houseflies, after 2 days
Method in brief: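 Adult houseflies (10 per vessel) exposed to a sugar-solution-treated sponge carrying compound diluted in water from a DMSO concentrate at the desired concentration. Kill in % scored after 2 days; 100% = all flies dead, 0% = none.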

[10] = tested on: Myzus persicae; assay: Myzus persicae spray test; format: in vivo; settings: application rate 100 g/ha, after 6 days
Method: Myzus Persicae—Spray Test […] To produce further test concentrations, the preparation is diluted with emulsifier-containing water. Discs of Chinese cabbage leaves (Brassica pekinensis) infested by all stages of the green peach aphid (Myzus persicae) are sprayed with an active compound preparation of the desired concentration.

[11] = tested on: Phaedon cochleariae; assay: Phaedon cochleariae spray test; format: in vivo; settings: application rate 100 g/ha, after 7 days
Method: Phaedon Cochleariae—Spray Test
(§2) • Solvent: 78.0 parts by weight of acetone • 1.5 parts by weight of dimethylformamide • Emulsifier: alkylaryl polyglycol ether
(§3) To produce a suitable preparation of active compound, 1 part by weight of active compound is dissolved using the stated parts by weight of solvent and made up with water containing an emulsifier concentration of 1000 ppm until the desired concentration is attained. To produce further test concentrations, the preparation is diluted with emulsifier-containing water.
After 7 days, the efficacy in % is determined. 100% means that all the beetle larvae have been killed; 0% means that no beetle larvae have been killed.

[12] = tested on: Spodoptera frugiperda; assay: Spodoptera frugiperda spray test; format: in vivo; settings: application rate 100 g/ha, after 7 days
Method: Spodoptera Frugiperda—Spray Test
as §2, §3
Leaf discs of maize (Zea mays) are sprayed with an active compound preparation of the desired concentration and, after drying, populated with caterpillars of the armyworm (Spodopterafrugiperda).
After 7 days, the efficacy in % is determined. 100% means that all the caterpillars have been killed; 0% means that no caterpillars have been killed.

[13] = tested on: Tetranychus urticae; assay: Tetranychus urticae spray test, OP-resistant; format: in vivo; settings: application rate 100 g/ha, after 6 days
Method: Tetranychus Urticae—Spray Test, OP-Resistant
as §2
To produce further test concentrations, the preparation is diluted with emulsifier-containing water.
After 6 days, the efficacy in % is determined. 100% means that all the spider mites have been killed; 0% means that none of the spider mites have been killed.

[14] = tested on: Anopheles gambiae strain RSPH (homozygot kdr); settings: application rate 40 mg/m^2, exposure 30 minutes, 24 hours after contact
Method: Anopheles Test (ANPHGB Surface Treatment)
(§4) • Solvent: acetone+2000 ppm rapeseed oil methyl ester (RME)
The exposure time is 30 minutes.
(§5) 24 hours after contact with the treated surface, mortality in % is determined. 100% means that all the mosquitoes have been killed; 0% means that none of the mosquitoes have been killed.

[15] = tested on: Anopheles funestus strain FUMOZ-R; settings: application rate 40 mg/m^2, exposure 30 minutes, 24 hours after contact
Method: Anopheles Test (ANPHFU Surface Treatment)
as §4
The exposure time is 30 minutes.
as §5

[16] = HPLC, C18, acetonitrile (0.1% formic acid)/water (0.09% formic acid) gradient

Row | SMILES | logP [1, 16] | efficacy (fleas dead or moribund) [2] [%] | efficacy (ticks dead or moribund) [3] [%] | efficacy (kill in %) [4] [%] | efficacy (laying of fertile eggs) [5] [%] | efficacy (laying of fertile eggs) [6] [%] | efficacy (kill in %) [7] [%] | efficacy (kill in %) [8] [%] | efficacy (kill in %) [9] [%] | efficacy in % [10] [%] | efficacy in % [11] [%] | efficacy in % [12] [%] | efficacy in % [13] [%] | efficacy (mortality in %) [14] | efficacy (mortality in %) [15] | chromatographic logP ([1]; reversed-phase C18 HPLC column, HPLC, C18, acetonitrile (0.1% formic acid)/water (0.09% formic acid) gradient, read-out: logP) | chromatographic logP ([1]; reversed-phase C18 HPLC column, HPLC-MS method a), read-out: log P (HPLC-MS))
1 | Cc1cc(C(F)(C(F)(F)F)C(F)(F)F)cc(C)c1-n1cc(-c2cnc(Cl)c(C(=O)NC3CC3)c2)nn1 [Example 2] | 3.8 | 100 | 100 | 100 | 100 | 100 | 100 | 100 | 100 | 90 | 100 | 100 | 90 | – | – | – | –
2 | O=C(NC1CC1)c1cc(-c2cn(-c3c(Cl)cc(C(F)(C(F)(F)F)C(F)(F)F)cc3C(F)(F)F)nn2)cnc1Cl [Example 16] | 4.0 | – | – | – | 100 | 100 | 100 | 100 | 100 | 90 | 100 | 100 | 100 | 90-100% | 90-100% | – | –
3 | Cc1cc(C(F)(C(F)(F)F)C(F)(F)F)cc(C)c1-n1cc(-c2cnc(C)c(C(=O)NC3CC3)c2)nn1 [Example 1, N-cyclopropyl-5-[1-[2,6-dimethyl-4-[1,2,2,2-tetrafluoro-1-(trifluoromethyl)ethyl]phenyl]triazol-4-yl]-2-methylpyridine-3-carboxamide] | – | 100 | 100 | 80 | 100 | 100 | 100 | 100 | 100 | 90 | 100 | 100 | 100 | – | – | 3.3 | 3.33
4 | Cc1ncc(-c2cn(-c3c(Cl)cc(C(F)(C(F)(F)F)C(F)(F)F)cc3Cl)nn2)cc1C(=O)NC1CC1 [Example 5] | 3.4 | 100 | 100 | 100 | 100 | 100 | 100 | 100 | 100 | – | 100 | 100 | 100 | – | – | – | –
